Test [1] addresses T1, Human Myelin Basic Protein (Homo sapiens, UniProt P02686). Description: Phage display library screening (Example 1, Power BI analysis), binding to Human Myelin Basic Protein. Further details: Enzo 200-606-M001 from human; purchased Enzo 200-606-M001; host or cells: human brain (tissue-derived). To be noted: R3 Myelin Basic Protein, NextGen sequencing count of phage sequences distinct for this target. From the text:
(§1) Phage display library screens were used to identify peptides that bind to target proteins that are expressed in human nerves and could therefore be useful for systemic in-vivo labeling of nerves during fluorescence assisted surgery. Specifically, m13 phage libraries expressing 7 or 12 random amino acid peptides, or a cyclic peptide CX7C, on the N-terminus of the minor coat protein pIII (New England Biolabs) were processed through multiple rounds of selection for binding to target proteins expressed in peripheral nerve (Table 1).
(§2) The library was processed through up to 4 binding and wash cycles. For selection, phage libraries were incubated for up to 24 hours at 4° C. in 96 well plates that had been coated with one of the target proteins. Plates were then washed with PBS and phage were eluted using 0.2M glycine pH 2.0. Phage supernatants where then neutralized with Tris pH 9.0 prior to plating on TG1 bacteria and LB agar plates. Colonies were counted to determine titer followed by DNA preparation of pools of phage and NextGen sequencing. After rounds of selection, phage were pooled and amplified for iterative selection. Phage that were bound at each round were sequenced. NextGen sequencing of pools after 2, 3 and 4 rounds of selection was used to isolate candidate sequences that were analyzed further to identify those that specifically bound each unique target protein.
(§3) DNA sequences were trimmed of all vector amino acids and imported as a peptide dataset into Power BI. Power BI was used to identify phage display sequences for specific columns (corresponding to each target protein) in order to identify sequences that were distinct for each protein target. The Power BI code evaluated each individual sequence for each protein target against the sequences present in other protein targets in a test for uniqueness. Using the distinct flag, the Power BI code generated a filtered peptide dataset that excluded any peptide sequence that occur in more than one column which identified a specific protein target. This method therefore identified candidate peptide sequences showing selective binding to an individual target protein. Unique sequences in each column were sorted by individual counts such that the most selected sequences appeared at the top of the column.

Test [2] has as its target T1, Human Myelin Basic Protein. In words: Phage display library screening (Example 2, Python script analysis), binding to Human Myelin Basic Protein. To be noted: R3 Myelin Basic Protein; combined unique sequence count, Python/R script analysis. The arrangement: Enzo 200-606-M001 from human; purchased Enzo 200-606-M001; host or cells: human brain (tissue-derived). The method, boiled down:
(§4)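 Target protein-coated wells were panned with M13 phage libraries displaying 7- or 12-mer random or cyclic CX7C peptides on pIII, over up to 4 rounds (up to 24 h, 4° C), with glycine pH 2.0 elution. Pools from rounds 2–4 were NextGen-sequenced. Peptides specific to each target were ranked by unique sequence count.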

Test [3] has as its system Human Myelin PLP. Description: Phage display library screening (Example 1, Power BI analysis), binding to Human Myelin PLP. The conditions noted are these: R3 Myelin PLP, NextGen sequencing count of phage sequences distinct for this target.
Source text: as §1, §2, §3

In test [4] the test system is Human Myelin PLP. In words: Phage display library screening (Example 2, Python script analysis), binding to Human Myelin PLP. The conditions noted are these: combined unique sequence count, Python/R script analysis. The protocol:
Phage display library screens were used to identify peptides that bind to target proteins (including specific laminin trimers) that are expressed in human nerves, as described in Table 3. These screens were also carried out to identify peptides that could bind selectively to nerves versus muscle. Such peptides could therefore be useful for systemic in-vivo labeling of nerves during fluorescence assisted surgery. Specifically, m 13 phage libraries expressing 7 or 12 random amino acid peptides, or a cyclic peptide CX7C, on the N-terminus of the minor coat protein pIII (New England Biolabs; NEB) were processed through multiple rounds of selection for binding to target proteins expressed in nerves, or to excised human nerves, nerve extracts, or muscle, as described further below.
as §2, with “For screening against the specified target proteins in Table 1, including LN211, LN411, LN421, and LN521, the phage” for “The”, “by” for “through”, “TGI” for “TG1”
Python Script Analysis: For all NEB sequence datasets, a python script was used to translate, trim, and filter the peptide sequences. The script translated the nucleotide sequences, translating amber codons as glutamine in peptide sequences, and then trimmed the end sequences that come from the vector. Secondly, the script combined the unique counts of trimmed peptides with identical sequences. […] Another python script was used to group peptides from different assays according to protein target (Myelin Protein Zero, Myelin Proteolipid Protein, Myelin Basic Protein, and Nidogen-2) and also combine the unique sequence counts for each peptide. An R script was written to merge the peptide sequences from different data files and determine peptides specific for each protein target but absent from different protein binding datasets. Peptide sequences were ranked by unique sequence count.

The target in a further test is Human MPZ (human) (UniProt P25189). Description: phage display R3, NGS count.
The target in test [5] is T2, Human MPZ (Homo sapiens, UniProt P25189).
T2 construct: purchased Novoprotein (lysate); Bon Opus Biosciences (recombinant protein) NBL1 1321 (lysate); no catalogue number printed for the Bon Opus protein
T2 sequence (P25189 30-248): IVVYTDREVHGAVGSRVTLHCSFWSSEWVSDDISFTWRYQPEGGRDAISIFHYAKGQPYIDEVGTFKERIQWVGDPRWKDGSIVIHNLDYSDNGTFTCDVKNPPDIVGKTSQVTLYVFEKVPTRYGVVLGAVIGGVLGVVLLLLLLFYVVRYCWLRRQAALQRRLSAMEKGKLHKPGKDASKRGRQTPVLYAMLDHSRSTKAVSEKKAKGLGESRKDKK
In words: Phage display library screening (Example 1, Power BI analysis), binding to Human MPZ. To be noted: R3 Human MPZ, NextGen sequencing count of phage sequences distinct for this target.
Source text: as §1, §2, §3

The test system of test [6] is Human MPZ. Description: Phage display library screening (Example 2, Python script analysis), binding to Human MPZ. The conditions noted are these: combined unique sequence count, Python/R script analysis. In a few lines: as §4

T1 sequence (P02686 134-304): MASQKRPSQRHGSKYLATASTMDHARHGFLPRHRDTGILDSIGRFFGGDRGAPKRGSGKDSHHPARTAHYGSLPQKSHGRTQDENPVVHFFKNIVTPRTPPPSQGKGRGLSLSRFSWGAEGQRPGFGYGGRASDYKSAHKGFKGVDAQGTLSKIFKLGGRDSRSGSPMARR

As for “DPWVMLR (R3 Myelin Basic Protein-binding peptide)”, the Count in test [1] and in test [2] was 11 throughout.

For ATLKPYR (R3 Myelin PLP-binding peptide), the Count in the test on Human Myelin PLP [3] and in the test on Human Myelin PLP [4] was 68 throughout.

As to “AWSTSSV (R3 Myelin Basic Protein-binding peptide)”, the Count in test [1] and in test [2] was 12 throughout.

Substance GPFLFTV (R3 Myelin PLP-binding peptide) came in with a Count in the test on Human Myelin PLP [3] of 47.

With MTPHTSC (R3 Myelin PLP-binding peptide), the Count with Human Myelin PLP [3] is given as 62.

As for “AITSRNA (R3 Myelin Basic Protein-binding peptide)”, the Count in test [1] is on record as 15.

As for FPVVTRN (R3 Myelin PLP-binding peptide), the Count with Human Myelin PLP [3] was determined as 42.

“MQTQGRV (R3 Myelin Basic Protein-binding peptide)”: in test [1], the Count worked out at 12.

Consider “AGQLMRCANC (R3 Myelin Basic Protein-binding peptide)”, for which the Count in test [1] is given as 12.

For SHLASRP (peptide), the Count with Human MPZ (human) was 97.

“NDTKTPS (R3 Myelin Basic Protein-binding peptide)” showed a Count in test [1] of 19.

For LTHHFAP (R3 Myelin PLP-binding peptide), the Count with Human Myelin PLP [3] and in the test with Human Myelin PLP [4] was 40 each time.

Consider “LPMRILT (R3 Myelin Basic Protein-binding peptide)”, for which the Count in test [1] and in test [2] was 16 in each case.

With RHNVEFS (R3 Myelin PLP-binding peptide), the Count with Human Myelin PLP [3] and in the test with Human Myelin PLP [4] was 42 each time.

With HQGSRTY (R3 Myelin PLP-binding peptide), the Count with Human Myelin PLP [3] and in the test with Human Myelin PLP [4] was 53 throughout.

Take NPNWRTI (R3 Myelin PLP-binding peptide): the Count with Human Myelin PLP [3] and in the test on Human Myelin PLP [4] was 34 each time.

Turning to YPKLWTY (R3 Myelin PLP-binding peptide), the Count in the test on Human Myelin PLP [3] and in the test with Human Myelin PLP [4] was 35 in each case.

For RVPHSRT (peptide), in the test with Human MPZ (human), the Count was found to be 49.

Regarding EKPSWTR (R3 Myelin PLP-binding peptide), the Count in the test with Human Myelin PLP [3] and in the test on Human Myelin PLP [4] was 33 each time.

Take YTPMGTG (R3 Myelin PLP-binding peptide): the Count with Human Myelin PLP [3] and in the test on Human Myelin PLP [4] was 50 in each case.

Turning to “HRLPWHH (R3 Myelin Basic Protein-binding peptide)”, the Count in test [1] and in test [2] was 10 each time.

“ILLPSLN (R3 Myelin Basic Protein-binding peptide)” gave a Count in test [1] of 13.

With “SKSDAWR (R3 Myelin Basic Protein-binding peptide)”, in test [1], the Count amounted to 14.

“EHGYYKV (R3 Myelin Basic Protein-binding peptide)”: the figures for the Count in test [1] and in test [2] were 16 and 17, respectively.

On to “QIGVLPS (R3 Myelin Basic Protein-binding peptide)”, for which the Count in test [1] is recorded as 11.

In the case of GLIRHYT (R3 Myelin PLP-binding peptide), the Count in the test with Human Myelin PLP [3] and in the test on Human Myelin PLP [4] was 66 in each case.

“DGKNTSN (R3 Myelin Basic Protein-binding peptide)”: the Count in test [1] worked out at 10.

Take SMWSQFR (R3 Myelin PLP-binding peptide): the Count with Human Myelin PLP [3] and with Human Myelin PLP [4] was 34 throughout.

For FKMPIPT (R3 Myelin PLP-binding peptide), the Count in the test on Human Myelin PLP [3] and with Human Myelin PLP [4] was 34 each time.

Take “QNTGLKW (R3 Myelin Basic Protein-binding peptide)”: the Count in test [1] and in test [2] was 11 each time.

As for “WTMKPNY (R3 Myelin Basic Protein-binding peptide)”, the results for the Count in test [1] and in test [2] were 13 and 14, respectively.

Take “SPDRTSL (R3 Myelin Basic Protein-binding peptide)”: the Count in test [1] and in test [2] was 12 each time.

In test [1], “HPSTWHK (R3 Myelin Basic Protein-binding peptide)” displayed a Count of 18.

As to RFELPAP (R3 Myelin PLP-binding peptide), the Count with Human Myelin PLP [3] and in the test with Human Myelin PLP [4] was 52 each time.

For LALYARM (R3 Myelin PLP-binding peptide), the Count with Human Myelin PLP [3] and in the test on Human Myelin PLP [4] was 44 each time.

For LRFQIPP (R3 Myelin PLP-binding peptide), the Count with Human Myelin PLP [3] and in the test on Human Myelin PLP [4] was 44 throughout.

On to TNPWKPH (R3 Myelin PLP-binding peptide), for which the Count in the test with Human Myelin PLP [3] and in the test with Human Myelin PLP [4] was 62 throughout.

Take NPSHHPR (R3 Myelin PLP-binding peptide): the Count with Human Myelin PLP [3] and in the test with Human Myelin PLP [4] was 37 in each case.

As to KMAGHTV (R3 Human MPZ-binding peptide), the Count with Human MPZ [5] was 51; in the test with Human MPZ [6] it was 54.

For the substance DPITRLK (R3 Human MPZ-binding peptide), the Count was determined as 92 with Human MPZ [5] and 93 in the test on Human MPZ [6].

DTSRTME (R3 Myelin PLP-binding peptide): the Count with Human Myelin PLP [3] and in the test with Human Myelin PLP [4] was 33 each time.

On to “SVLRMLN (R3 Myelin Basic Protein-binding peptide)”, for which the Count in test [1] is 16.

For TMASPAK (R3 Human MPZ-binding peptide), the results for the Count with Human MPZ [5] and in the test on Human MPZ [6] were 52 and 58, respectively.

For the substance GLTPKLF (peptide), the Count with Human MPZ (human) was 48.

The substance “LRPISHE (R3 Myelin Basic Protein-binding peptide)” returned a Count in test [1] of 12.

In test [1], “AGFPPNT (R3 Myelin Basic Protein-binding peptide)” registered a Count of 10.

As for ETTRNYG (R3 Human MPZ-binding peptide), the Count worked out at 68 in the test with Human MPZ [5] and 69 in the test with Human MPZ [6].
